Data as given in US9302999B2, “Substituted triazoles as herbicides” (E. I. DU PONT DE NEMOURS AND COMPANY, priority 2012, dated 2016).

Experiments:
Assay type in all cases: in vivo
[1] = system: goosegrass (Eleusine indica); test: Test C pre-/postemergence: goosegrass
Source text: Seeds of plant species selected from blackgrass (Alopecurus myosuroides), bromegrass, downy (downy bromegrass, Bromus tectorum), foxtail, green (green foxtail, Setaria viridis), ryegrass, Italian (Italian ryegrass, Lolium multiflorum), winter wheat (Triticum aestivum), wild oat (Avena fatua), galium (catchweed bedstraw, Galium aparine), bermudagrass (Cynodon dactylon), surinam grass (Brachiaria decumbens), cocklebur (common cocklebur, Xanthium strumarium), corn (Zea mays), large crabgrass (Digitaria sanguinalis), woolly cupgrass (Eriochloa villosa), foxtail, giant (giant foxtail, Setaria faberii), goosegrass (Eleusine indica), johnsongrass (Sorghum halepense), kochia (Kochia scoparia), lambsquarters (Chenopodium album), morningglory (Ipomoea coccinea), nightshade (eastern black nightshade, Solanum ptycanthum), nutsedge, yellow (yellow nutsedge, Cyperus esculentus), pigweed (Amaranthus retroflexus), ragweed (common ragweed, Ambrosia elation), soybean (Glycine max), common (oilseed) sunflower (Helianthus annuus), Russian thistle (Salsola kali) and velvetleaf (Abutilon theophrasti) were planted into a blend of loam soil and sand and treated preemergence with test chemicals formulated in a non-phytotoxic solvent mixture which included a surfactant.
At the same time, plants selected from these crop and weed species and also barley (winter barley, Hordeum vulgare), canarygrass (Phalaris minor), chickweed (common chickweed, Stellaria media) windgrass (Apera spica-venti) and deadnettle (henbit deadnettle, Lamium amplexicaule) were planted in pots containing Redi-Earth® planting medium (Scotts Company, 14111 Scottslawn Road, Marysville, Ohio 43041) comprising spaghnum peat moss, vermiculite, wetting agent and starter nutrients and treated with postemergence applications of test chemicals formulated in the same manner. Plants ranged in height from 2 to 18 cm (1- to 4-leaf stage) for postemergence treatments.
(§1) Treated plants and controls were maintained in a greenhouse for 13 to 15 days, after which time all species were compared to controls and visually evaluated. Plant response ratings, summarized in Table C, are based on a scale of 0 to 100 where 0 is no effect and 100 is complete control. A dash (-) response means no test result.

[2] = system: deadnettle (henbit deadnettle, Lamium amplexicaule); test: Test D pre-/postemergence: deadnettle
In short: (§2)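 Visual 0–100 rating versus untreated controls (0 no effect, 100 complete control), taken 14 to 21 days after treatment in a controlled growth environment. Preemergence: silt loam soil. Postemergence: peat moss/vermiculite medium, plants 2 to 18 cm, 1- to 4-leaf stage. Solvent mixture with surfactant.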

[3] = system: ducksalad (Heteranthera limosa); test: Test C flooded paddy test: ducksalad; conditions: Heteranthera limosa, scale 0 to 100 (0 no effect, 100 complete control), read-out: Plant response rating, Ducksalad
In short: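 Plants were grown to the 2-leaf stage, pots flooded to 3 cm above soil, and test compounds applied directly to the paddy water, with that depth held throughout. After 13 to 15 days in a greenhouse, injury was visually rated against controls on a 0 (no effect) to 100 (complete control) scale.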

[4] = system: canarygrass (Phalaris minor); test: Test D pre-/postemergence: canarygrass
In short: as §2

[5] = system: bluegrass (annual bluegrass, Poa annua); test: Test D pre-/postemergence: bluegrass
Source text: Seeds of plant species selected from bluegrass (annual bluegrass, Poa annua), blackgrass (Alopecurus myosuroides), canarygrass (Phalaris minor), chickweed (common chickweed, Stellaria media), galium (catchweed bedstraw, Galium aparine), bromegrass, downy (downy bromegrass, Bromus tectorum), field poppy (Papaver rhoeas), field violet (Viola arvensis), foxtail, green (green foxtail, Setaria viridis), deadnettle (henbit deadnettle, Lamium amplexicaule), ryegrass, Italian (Italian ryegrass, Lolium multiflorum), kochia (Kochia scoparia), lambsquarters (Chenopodium album), oilseed rape (Brassica napus), pigweed (Amaranthus retroflexus), Russian thistle (Salsola iberica), chamomile (scentless chamomile, Matricaria inodora), speedwell (bird's-eye speedwell, Veronica persica), barley, spring (spring barley, Hordeum vulgare), wheat, spring (spring wheat, Triticum aestivum), buckwheat, wild (wild buckwheat, Polygonum convolvulus), mustard, wild (wild mustard, Sinapis arvensis), oat, wild (wild oat, Avena fatua), radish, wild (wild radish, Raphanus raphanistrum), windgrass (Apera spica-venti), barley, winter (winter barley, Hordeum vulgare), and wheat, winter (winter wheat, Triticum aestivum) were planted into a silt loam soil and treated preemergence with test chemicals formulated in a non-phytotoxic solvent mixture which included a surfactant. At the same time, these same crop and weed species were planted in pots containing the planting medium comprising spaghnum peat moss, vermiculite, wetting agent and starter nutrients and treated with postemergence applications of the test chemicals formulated in the same manner. Plants ranged in height from 2 to 18 cm (1- to 4-leaf stage).
as §1, with “controlled growth environment” for “greenhouse”, “14” for “13”, “21 days” for “15 days,”, “D,” for “C,”

[6] = system: wheat, spring (spring wheat, Triticum aestivum); test: Test D pre-/postemergence: wheat, spring
In short: as §2

[7] = system: sedge, umbrella (small-flower umbrella sedge Cyperus difformis); test: Test B flooded paddy: sedge, umbrella; conditions: Flood, applied to paddy water at 2-leaf stage, visually evaluated after 13 to 15 days
In short: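 Plants were grown to the 2-leaf stage, then pots were flooded to 3 cm above the soil and compounds were applied directly into the paddy water. Water depth was held for the whole test; after 13 to 15 days in a greenhouse, injury was visually rated against untreated controls (0 = no effect, 100 = complete control).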

[8] = Postemergence, 31 g ai/ha, scale 0 to 100 (0 no effect, 100 complete control)
[9] = Postemergence, 62 g ai/ha, scale 0 to 100 (0 no effect, 100 complete control)
[10] = Postemergence, 125 g ai/ha, scale 0 to 100, 0 no effect, 100 complete control
[11] = Postemergence, 250 g ai/ha, scale 0 to 100
[12] = Preemergence, 31 g ai/ha, scale of 0 to 100, 0 is no effect, 100 is complete control
[13] = Preemergence, 62 g ai/ha, scale of 0 to 100, 0 is no effect, 100 is complete control
[14] = Preemergence, 125 g ai/ha, scale 0 to 100, 0 no effect, 100 complete control
[15] = Preemergence, 250 g ai/ha, scale 0 to 100, 0 no effect, 100 complete control
[16] = Postemergence, 250 g ai/ha, scale 0 to 100 (0 no effect, 100 complete control)
[17] = Postemergence, 16 g ai/ha, scale 0 to 100
[18] = Preemergence, 16 g ai/ha, scale 0 to 100 (0 no effect, 100 complete control)
[19] = Preemergence, 31 g ai/ha, scale 0 to 100 (0 no effect, 100 complete control)
[20] = Preemergence, 62 g ai/ha, scale 0 to 100
[21] = Preemergence, 125 g ai/ha, scale 0 to 100
[22] = Preemergence, 250 g ai/ha, scale 0 to 100

Structure (SMILES): Cc1nn(-c2ccc(F)cc2)nc1Oc1ccnc(C(F)(F)F)c1 [Compound 129, 4-[[2-(4-fluorophenyl)-5-methyl-2H-1,2,3-triazol-4-yl]oxy]-2-(trifluoromethyl)pyridine]
- Plant response rating, Goosegrass [1, 8]: 15
- Plant response rating, Goosegrass [1, 9]: 25
- Plant response rating, Goosegrass [1, 10]: 30
- Plant response rating, Goosegrass [1, 11]: 55
- Plant response rating, Goosegrass [1, 12]: 98
- Plant response rating, Goosegrass [1, 13]: 98
- Plant response rating, Goosegrass [1, 14]: 98
- Plant response rating, Goosegrass [1, 15]: 98
- Plant response rating: Deadnettle [2, 8]: 75
- Plant response rating: Deadnettle [2, 9]: 80
- Plant response rating: Deadnettle [2, 10]: 98
- Plant response rating: Deadnettle [2, 16]: 100
- Plant response rating, Deadnettle [2, 17]: 60
- Plant response rating, Deadnettle [2, 18]: 0
- Plant response rating, Deadnettle [2, 19]: 10
- Plant response rating, Deadnettle [2, 20]: 100
- Plant response rating, Deadnettle [2, 21]: 100
- Plant response rating, Deadnettle [2, 22]: 100
- pest or weed control at 125 g/ha ([3]; Flood (flooded paddy test), 125 g ai/ha, visual rating after 13 to 15 days): 80%
- pest or weed control at 250 g/ha ([3]; Flood (flooded paddy test), 250 g ai/ha, visual rating after 13 to 15 days): 90%
- pest or weed control at 31 g/ha ([3]; Flood, 31 g ai/ha): 70%
- pest or weed control at 62 g/ha ([3]; Flood, 62 g ai/ha): 75%
- Plant response rating: Canarygrass [4, 8]: 10
- Plant response rating: Canarygrass [4, 9]: 15
- Plant response rating: Canarygrass [4, 10]: 70
- Plant response rating: Canarygrass [4, 16]: 80
- Plant response rating, Canarygrass [4, 17]: 10
- Plant response rating, Canarygrass [4, 18]: 0
- Plant response rating, Canarygrass [4, 19]: 15
- Plant response rating, Canarygrass [4, 20]: 100
- Plant response rating, Canarygrass [4, 21]: 100
- Plant response rating, Canarygrass [4, 22]: 100
- Plant response rating: Bluegrass [5, 8]: 10
- Plant response rating: Bluegrass [5, 9]: 20
- Plant response rating: Bluegrass [5, 10]: 60
- Plant response rating: Bluegrass [5, 16]: 70
- Plant response rating, Bluegrass [5, 17]: 10
- Plant response rating, Bluegrass [5, 18]: 0
- Plant response rating, Bluegrass [5, 19]: 0
- Plant response rating, Bluegrass [5, 20]: 85
- Plant response rating, Bluegrass [5, 21]: 100
- Plant response rating, Bluegrass [5, 22]: 100
- Plant response rating: Wheat, Spring [6, 8]: 10
- Plant response rating: Wheat, Spring [6, 9]: 10
- Plant response rating: Wheat, Spring [6, 10]: 15
- Plant response rating: Wheat, Spring [6, 16]: 20
- Plant response rating, Wheat, Spring [6, 17]: 5
- Plant response rating, Wheat, Spring [6, 18]: 0
- Plant response rating, Wheat, Spring [6, 19]: 0
- Plant response rating, Wheat, Spring [6, 20]: 0
- Plant response rating, Wheat, Spring [6, 21]: 5
- Plant response rating, Wheat, Spring [6, 22]: 15

Structure (SMILES): Cc1nn(-c2ccnc(C(F)(F)F)c2)nc1Cc1ccnc(C(F)(F)F)c1 [Compound 137]
- Plant response rating, Goosegrass [1, 8]: 20
- Plant response rating, Goosegrass [1, 9]: 25
- Plant response rating, Goosegrass [1, 10]: 65
- Plant response rating: Deadnettle [2, 8]: 40
- Plant response rating: Deadnettle [2, 9]: 70
- Plant response rating: Deadnettle [2, 10]: 80
- Plant response rating: Deadnettle [2, 16]: 85
- Plant response rating, Deadnettle [2, 17]: 20
- Plant response rating: Canarygrass [4, 8]: 20
- Plant response rating: Canarygrass [4, 9]: 30
- Plant response rating: Canarygrass [4, 10]: 50
- Plant response rating: Canarygrass [4, 16]: 75
- Plant response rating, Canarygrass [4, 17]: 10
- Plant response rating: Bluegrass [5, 8]: 20
- Plant response rating: Bluegrass [5, 9]: 40
- Plant response rating: Bluegrass [5, 10]: 80
- Plant response rating: Bluegrass [5, 16]: 90
- Plant response rating, Bluegrass [5, 17]: 5
- Plant response rating, Sedge, Umbrella (0 to 100 scale, 0 is no effect, 100 is complete control) ([7]; 250 g ai/ha): 70
- Plant response rating: Wheat, Spring [6, 8]: 5
- Plant response rating: Wheat, Spring [6, 9]: 10
- Plant response rating: Wheat, Spring [6, 10]: 20
- Plant response rating: Wheat, Spring [6, 16]: 25
- Plant response rating, Wheat, Spring [6, 17]: 0

Structure (SMILES): Fc1ccc(-n2nc(Cc3ccnc(C(F)(F)F)c3)c(OCC(F)(F)F)n2)cc1 [Compound 142]
- Plant response rating, Goosegrass [1, 8]: 35
- Plant response rating, Goosegrass [1, 9]: 35
- Plant response rating, Goosegrass [1, 10]: 70
- Plant response rating, Goosegrass [1, 11]: 90
- Plant response rating, Goosegrass [1, 12]: 100
- Plant response rating, Goosegrass [1, 13]: 100
- Plant response rating, Goosegrass [1, 14]: 100
- Plant response rating, Goosegrass [1, 15]: 100
- Plant response rating, Sedge, Umbrella (0 to 100 scale, 0 is no effect, 100 is complete control) ([7]; 250 g ai/ha): 90

Structure (SMILES): CCCc1nn(-c2ccc(F)cc2)nc1Cc1ccnc(C(F)(F)F)c1 [Compound 153]
- Plant response rating, Sedge, Umbrella (0 to 100 scale, 0 is no effect, 100 is complete control) ([7]; 250 g ai/ha): 90

Structure (SMILES): Cc1nn(-c2ccc(C(F)(F)F)c(F)c2)nc1Cc1ccnc(C(F)(F)F)c1 [Compound 162]
- Plant response rating, Sedge, Umbrella (0 to 100 scale, 0 is no effect, 100 is complete control) ([7]; 125 g ai/ha): 80

Structure (SMILES): CCc1nn(-c2ccc(F)cc2)nc1Oc1ccnc(C(F)(F)F)c1 [Compound 166]
- Plant response rating, Sedge, Umbrella (0 to 100 scale, 0 is no effect, 100 is complete control) ([7]; 125 g ai/ha): 70

Structure (SMILES): CCCc1nn(-c2ccc(C(F)(F)F)c(F)c2)nc1Oc1ccnc(C(F)(F)F)c1 [Compound 185]
- Plant response rating, Sedge, Umbrella (0 to 100 scale, 0 is no effect, 100 is complete control) ([7]; 250 g ai/ha): 95

Structure (SMILES): CCOc1nn(-c2ccc(Br)cc2)nc1Cc1ccnc(C(F)(F)F)c1 [Compound 189]
- Plant response rating, Sedge, Umbrella (0 to 100 scale, 0 is no effect, 100 is complete control) ([7]; 125 g ai/ha): 0
